In ChEMBL document CHEMBL1126718, “Potent in vitro and in vivo inhibitors of platelet aggregation based upon the Arg-Gly-Asp-Phe sequence of fibrinogen. A proposal on the nature of the binding interaction between the Arg-guanidine of RGDX mimetics and the platelet GP IIb-IIIa receptor” (J Med Chem, 1993):
Peptide text beside a SMILES is read from it.

Experiments:
Canis familiaris [1] = species on record: Canis familiaris; test: In vitro inhibition of ADP-induced platelet aggregation in canine platelet rich plasma (PRP); format: functional; settings: Canis lupus familiaris
[2] = In vitro inhibition of ADP-induced platelet aggregation in human platelet rich plasma (PRP); format: functional
Canis familiaris [3] = species on record: Canis familiaris; test: In vitro inhibition of ADP-induced platelet aggregation in canine platelet rich plasma (PRP); Inactive; format: functional, Canis lupus familiaris
[4] = In vitro inhibition of ADP-induced platelet aggregation in platelet rich plasma (PRP); format: functional

Structure (SMILES)	IC50 (Canis familiaris [1]) [µM]	IC50 [2] [µM]	IC50 (Canis familiaris [3])	IC50 [4] [µM]
N=C(N)c1ccc(C#CCCC(=O)N[C@@H](CC(=O)O)C(=O)N[C@@H](Cc2ccccc2)C(=O)O)cc1	0.09	0.12		
N=C(N)c1ccc(CCCC(=O)N[C@@H](CC(=O)O)C(=O)N[C@@H](Cc2ccccc2)C(=O)O)cc1			Not Active	
N=C(N)c1cccc(/C=C/CCCC(=O)N[C@@H](CC(=O)O)C(=O)N[C@@H](Cc2ccccc2)C(=O)O)c1	4.3	3.2		
N=C(N)c1ccc(CCCCC(=O)N[C@@H](CC(=O)O)C(=O)N[C@@H](Cc2ccccc2)C(=O)O)cc1	0.053	0.042		
N=C(N)c1ccc(/C=C/CCC(=O)N[C@@H](CC(=O)O)C(=O)N[C@@H](Cc2ccccc2)C(=O)O)cc1	0.082	0.09		
N=C(N)c1cccc(CCCCCC(=O)N[C@@H](CC(=O)O)C(=O)N[C@@H](Cc2ccccc2)C(=O)O)c1	5.8			
N=C(N)c1ccc(CC(=O)CCC(=O)N[C@@H](CC(=O)O)C(=O)N[C@@H](Cc2ccccc2)C(=O)O)cc1	0.18			
N=C(N)NCCC[C@H](N)C(=O)NCC(=O)N[C@@H](CC(=O)O)C(=O)N[C@@H](Cc1ccccc1)C(=O)O (H-RGDF-OH)				90
